Assay results reported in patent EP0831826B1, “PHARMACEUTICAL COMPOSITION COMPRISING A PROTEINASE INHIBITOR AND A MONOGLYCERIDE” (F. HOFFMANN-LA ROCHE AG, priority 1995, dated 1996).
Values after ≈ are worked out from the molar mass of the structure shown. Structures can show the parent of a compound that is named as a salt. Where two headings read alike, the source gives them in different places.

Experiments:
physchem = settings: hcl, pH 1.1, solubility

solubility (hcl, pH 1.1) [µg/mL]	solubility (phosphate buffer, pH 5.4) [µg/mL]	solubility (water) [µg/mL]	solubility (physchem) [µg/mL]	Compound
50 (≈ 74.5 µM)	< 10	30 (≈ 44.7 µM)	–	CC(C)(C)NC(=O)[C@@H]1C[C@@H]2CCCC[C@@H]2CN1C[C@@H](O)[C@H](Cc1ccccc1)NC(=O)[C@H](CC(N)=O)NC(=O)c1ccc2ccccc2n1 [Compound A, N-tert.-butyl-decahydro-2-[2(R)-hydroxy-4-phenyl-3(S)-[[N-(2-quinolylcarbonyl)-L-asparaginyl]amino]butyl]-(4aS,8aS)-isoquinoline-3(S)-carboxamide]
–	2320	2550	60	CC(C)(C)NC(=O)[C@@H]1C[C@@H]2CCCC[C@@H]2CN1C[C@@H](O)[C@H](Cc1ccccc1)NC(=O)[C@H](CC(N)=O)NC(=O)c1ccc2ccccc2n1 [Compound A-mesylate salt]
